According to US20220125051A1, “PRE-HARVEST DESICCATION METHOD” (SYNGENTA CROP PROTECTION AG, priority 2019, published 2022):
Read-outs that look alike come from different tables or passages of the source.

What was measured:
Test in all cases: Post-emergence efficacy, Method A
Type in all cases: in vivo
[1] = system: Amaranthus palmeri (AMAPA); conditions: Amaranthus palmeri, post-emergence, 312 h, evaluated after 13 days
Method: (§1) Seeds of a variety of test species were sown in standard soil in pots. After cultivation for 14 days (post-emergence) under controlled conditions in a glasshouse (at 24/16° C., day/night; 14 hours light; 65% humidity), the plants were sprayed with an aqueous spray solution derived from the dissolution of the technical active ingredient formula (I) in a small amount of acetone and a special solvent and emulsifier mixture referred to as IF50 (11.12% Emulsogen EL360 TM+44.44% N-methylpyrrolidone+44.44% Dowanol DPM glycol ether), to create a 50 g/I solution which was then diluted to required concentration using 0.25% or 1% Empicol ESC70 (Sodium lauryl ether sulphate)+1% ammonium sulphate as diluent. The test plants were then grown in a glasshouse under controlled conditions (at 24/16° C., day/night; 14 hours light; 65% humidity) and watered twice daily. After 13 days the test was evaluated (100=total damage to plant; 0=no damage to plant).
(§2) Ipomoea hederacea (IPOHE), Euphorbia heterophylla (EPHHL), Chenopodium album (CHEAL), Amaranthus palmeri (AMAPA), Lolium perenne (LOLPE), Digitaria sanguinalis (DIGSA), Eleusine indica (ELEIN), Echinochloa crus-galli (ECHCG), Setaria faberi (SETFA)

[2] = system: Chenopodium album (CHEAL); conditions: Chenopodium album, post-emergence, 312 h, evaluated after 13 days
Method: as §1, §2

[3] = system: Digitaria sanguinalis (DIGSA); conditions: Digitaria sanguinalis, post-emergence, 312 h, evaluated after 13 days
Method: as §1, §2

[4] = system: Echinochloa crus-galli (ECHCG); conditions: Echinochloa crus-galli, post-emergence, 312 h, evaluated after 13 days
Method: as §1, §2

Eleusine indica (ELEIN) = conditions: Eleusine indica, post-emergence, 312 h, evaluated after 13 days
Method: as §1, §2

[5] = system: Euphorbia heterophylla (EPHHL); conditions: Euphorbia heterophylla, post-emergence, 312 h, evaluated after 13 days
Method: as §1, §2

[6] = system: Ipomoea hederacea (IPOHE); conditions: Ipomoea hederacea, post-emergence, 312 h, evaluated after 13 days
Method: as §1, §2

Lolium perenne (LOLPE) = conditions: Lolium perenne, post-emergence, 312 h, evaluated after 13 days
Method: as §1, §2

Setaria faberi (SETFA) = conditions: Setaria faberi, post-emergence, 312 h; Application rate 500 g/Ha; evaluated after 13 days; 100=total damage to plant, 0=no damage to plant; read-out: Control of weed species after post-emergence application, SETFA
Method: as §1, §2

[7] = Application rate 500 g/Ha, 100=total damage to plant, 0=no damage to plant, read-out: Control of weed species after post-emergence application, CHEAL
[8] = Application rate 500 g/Ha, 100=total damage to plant, 0=no damage to plant, read-out: Control of weed species after post-emergence application, DIGSA
[9] = Application rate 500 g/Ha, 100=total damage to plant, 0=no damage to plant, read-out: Control of weed species after post-emergence application, ECHCG
[10] = Application rate 500 g/Ha, 100=total damage to plant, 0=no damage to plant, read-out: Control of weed species after post-emergence application, ELEIN
[11] = Application rate 500 g/Ha, 100=total damage to plant, 0=no damage to plant, read-out: Control of weed species after post-emergence application, EPHHL
[12] = Application rate 500 g/Ha, 100=total damage to plant, 0=no damage to plant, read-out: Control of weed species after post-emergence application, IPOHE
[13] = Application rate 500 g/Ha, 100=total damage to plant, 0=no damage to plant, read-out: Control of weed species after post-emergence application, LOLPE

SMILES	pest or weed control at 500 g/ha ([1]; Application rate 500 g/Ha, 100=total damage to plant, 0=no damage to plant, read-out: Control of weed species after post-emergence application, AMAPA) [%]	pest or weed control at 500 g/ha [2, 7] [%]	pest or weed control at 500 g/ha [3, 8] [%]	pest or weed control at 500 g/ha [4, 9] [%]	pest or weed control at 500 g/ha (Eleusine indica (ELEIN); [10]) [%]	pest or weed control at 500 g/ha [5, 11] [%]	pest or weed control at 500 g/ha [6, 12] [%]	pest or weed control at 500 g/ha (Lolium perenne (LOLPE); [13]) [%]	pest or weed control at 500 g/ha (Setaria faberi (SETFA)) [%]	pest or weed control at 500 g/ha ([1]; Application Rate 500 g/Ha, Method A, read-out: Control of weed species after post-emergence application, AMAPA (100=total damage to plant; 0=no damage to plant)) [%]	pest or weed control at 500 g/ha ([2]; Application Rate 500 g/Ha, Method A, read-out: Control of weed species after post-emergence application, CHEAL (100=total damage to plant; 0=no damage to plant)) [%]	pest or weed control at 500 g/ha ([3]; Application Rate 500 g/Ha, Method A, read-out: Control of weed species after post-emergence application, DIGSA (100=total damage to plant; 0=no damage to plant)) [%]	pest or weed control at 500 g/ha ([4]; Application Rate 500 g/Ha, Method A, read-out: Control of weed species after post-emergence application, ECHCG (100=total damage to plant; 0=no damage to plant)) [%]	pest or weed control at 500 g/ha (Eleusine indica (ELEIN); Application Rate 500 g/Ha, Method A, read-out: Control of weed species after post-emergence application, ELEIN (100=total damage to plant; 0=no damage to plant)) [%]	pest or weed control at 500 g/ha ([5]; Application Rate 500 g/Ha, Method A, read-out: Control of weed species after post-emergence application, EPHHL (100=total damage to plant; 0=no damage to plant)) [%]	pest or weed control at 500 g/ha ([6]; Application Rate 500 g/Ha, Method A, read-out: Control of weed species after post-emergence application, IPOHE (100=total damage to plant; 0=no damage to plant)) [%]	pest or weed control at 500 g/ha (Lolium perenne (LOLPE); Application Rate 500 g/Ha, Method A, read-out: Control of weed species after post-emergence application, LOLPE (100=total damage to plant; 0=no damage to plant)) [%]
Cc1n[n+](CCS(=O)(=O)[O-])ccc1-c1ncccn1 [Compound A88, 2-(3-methyl-4-pyrimidin-2-yl-pyridazin-1-ium-1-yl)ethanesulfonate]	100	70	90	60	90	60	30	60	70	–	–	–	–	–	–	–	–
Cc1cnc(-c2cc[n+](CCS(=O)(=O)[O-])nc2)cn1 [Compound A61]	–	80	100	90	100	90	50	70	100	–	–	–	–	–	–	–	–
O=C([O-])CC[n+]1ccc(-c2ncc(C3CC3)cn2)cn1 [Compound A51]	–	70	90	60	90	30	20	60	70	–	–	–	–	–	–	–	–
O=S(=O)([O-])CC[n+]1ccc(-c2nccc(C(F)(F)F)n2)cn1 [Compound A23]	–	80	80	70	100	90	60	70	100	–	–	–	–	–	–	–	–
CN(C)c1ccnc(-c2cc[n+](CCC(=O)[O-])nc2)n1 [Compound A45]	–	60	80	90	80	50	20	30	100	–	–	–	–	–	–	–	–
CS(=O)(=O)c1cnc(-c2cc[n+](CCS(=O)(=O)[O-])nc2)nc1 [Compound A15]	–	90	60	40	80	20	10	10	50	–	–	–	–	–	–	–	–
O=S(=O)([O-])CCC[n+]1ccc(-c2ccnc(Cl)n2)cn1 [Compound A53]	–	100	80	70	70	80	70	40	80	–	–	–	–	–	–	–	–
O=c1cc(-c2cc[n+](CCS(=O)(=O)[O-])nc2)nc[nH]1 [Compound A57]	–	60	80	40	40	60	10	10	60	–	–	–	–	–	–	–	–
O=S(=O)([O-])CCC[n+]1ccc(-c2ccc(O)nn2)cn1 [Compound A52]	–	60	70	60	70	60	20	10	70	–	–	–	–	–	–	–	–
Nc1cc(-c2cc[n+](CCC(=O)O)nc2)ncn1 [Compound A163]	–	–	–	–	–	–	–	–	–	100	60	50	40	90	50	30	70
COc1nccc(-c2cc[n+](CCS(=O)(=O)[O-])nc2)n1 [Compound A60]	–	100	100	90	100	70	60	70	90	–	–	–	–	–	–	–	–
CN(C)c1cnc(-c2cc[n+](CCS(=O)(=O)[O-])nc2)nc1 [Compound A18]	–	0	50	30	60	10	10	10	40	–	–	–	–	–	–	–	–
COc1cc(OC)nc(-c2cc[n+](CCS(=O)(=O)[O-])nc2)n1 [Compound A32]	–	70	90	70	100	70	40	30	80	–	–	–	–	–	–	–	–
Cc1nccc(-c2cc[n+](CCC(=O)O)nc2)n1 [Compound A55]	–	80	100	90	100	70	70	60	100	–	–	–	–	–	–	–	–
O=C([O-])CC[n+]1ccc(-c2ncc(Cl)cn2)cn1 [Compound A43]	–	90	90	70	100	80	30	20	100	–	–	–	–	–	–	–	–
Cc1cc(C)nc(-c2cc[n+](CCS(=O)(=O)[O-])nc2)n1 [Compound A48]	–	100	90	70	100	90	20	70	100	–	–	–	–	–	–	–	–
